Laboratory results from patent US20260250251A1, “HETEROCYCLIC COMPOUNDS AS PI3Ka INHIBITORS” (Pikavation Therapeutics, Inc., priority 2022, published 2026).

Tests used:
[1] = system: SKBR3 (PIK3CA WT) cells, pSer473 AKT; experiment: pS473 AKT assay in SKBR3 cells; assay type: cell-based; details: Homo sapiens, SK-BR-3, treated 2 h, read-out: SKBR3_IC50
Protocol: (§1) SKBR3 (PIK3CA WT), MCF7 (PIK3CA E545K), and T47D (PIK3CA H1047R) cells were cultured using 10-cm petri dishes with recommended medium. One day before the assay, cells were seeded in 96-well plates. After overnight incubation, cells were treated with different concentrations of PI3Kα inhibitors for 2 h. Cells were then fixed using 4% paraformaldehyde at room temperature for 20 min. Cells were aspirated with 4% paraformaldehyde, and washed using 1× regular phosphate buffered saline 3 times, 5 min each. Any residual phosphate buffered saline was aspirated and cells were blocked using 10% goat serum containing 1% bovine serum albumin and 0.3% Triton X-100 at room temperature for 1 h. Without any additional washing, primary antibodies (rabbit anti-pSer473 AKT) were diluted using blocking buffer and added at a final volume of 50 microliter per well. Assay plates with primary antibodies were maintained overnight at 4° C. Cells were washed using 1× regular phosphate buffered saline 3 times, 5 min each. After the final wash, cells were incubated with horseradish peroxidase-conjugated secondary antibodies (goat Anti-rabbit IgG) and diluted using the same blocking buffer at room temperature for 1 h. Cells were then washed thoroughly using 1× regular phosphate buffered saline 3 times, 5 min each, and any residual phosphate buffered saline was aspirated. Super-Signal ELISA Pico Chemiluminescent Substrate was then added at a final volume of 100 microliter per well. Plates were read on a i3x Multi-Mode Microplate Reader and IC50 values calculated using GraphPad Prism software.
(§2) Results of the assay described above are presented in Table A. “++++” indicates an IC50 less than 1000 nM; “+++” indicates an IC50 greater than or equal to 1000 nM but less than 5000 nM; “++” indicates an IC50 greater than or equal to 5000 nM but less than 10000 nM; and “+” indicates an IC50 greater than or equal to 10000 nM.

[2] = system: T47D (PIK3CA H1047R) cells, pSer473 AKT; experiment: pS473 AKT assay in T47D cells; assay type: cell-based; details: Homo sapiens, treated 2 h, read-out: T47D_IC50
Protocol: as §1, §2

Row | SMILES | IC50 [1] [µM] | IC50 [2] [µM]
1 | Cn1cnc(C#Cc2cc(NC(=O)c3cc(F)cc(C(F)(F)F)c3)c(Oc3cc(F)ccc3Cl)c3c(N)nn(C)c23)c1 [Example 50, N-(3-Amino-4-(2-chloro-5-fluorophenoxy)-1-methyl-7-((1-methyl-1H-imidazol-4-yl)ethynyl)-1H-indazol-5-yl)-3-fluoro-5-(trifluoromethyl)benzamide] | 5 to 10 | < 1
2 | CN1CCC(C#Cc2cc(NC(=O)c3cc(F)cc(C(F)(F)F)c3)c(Oc3cc(F)ccc3Cl)c3c(N)nn(C)c23)CC1 [Example 51, N-(3-Amino-4-(2-chloro-5-fluorophenoxy)-1-methyl-7-((1-methylpiperidin-4-yl)ethynyl)-1H-indazol-5-yl)-3-fluoro-5-(trifluoromethyl)benzamide] | ≥ 10 | < 1
3 | CNc1nn(C)c2c(Cl)cc(NC(=O)c3cc(F)cc(C(F)(F)F)c3)c(Oc3cc(F)ccc3Cl)c12 [Example 53, N-(7-chloro-4-(2-chloro-5-fluorophenoxy)-1-methyl-3-(methylamino)-1H-indazol-5-yl)-3-fluoro-5-(trifluoromethyl)benzamide] | ≥ 10 | < 1
4 | CN(C)c1nn(C)c2c(Cl)cc(NC(=O)c3cc(F)cc(C(F)(F)F)c3)c(Oc3cc(F)ccc3Cl)c12 [Example 54, N-(7-chloro-4-(2-chloro-5-fluorophenoxy)-3-(dimethylamino)-1-methyl-1H-indazol-5-yl)-3-fluoro-5-(trifluoromethyl)benzamide] | ≥ 10 | ≥ 10
5 | Nc1nn(CCN2CCC2)c2c(Cl)cc(NC(=O)c3cc(F)cc(C(F)(F)F)c3)c(Oc3cc(F)ccc3Cl)c12 [Example 56, N-(3-Amino-1-(2-(azetidin-1-yl)ethyl)-7-chloro-4-(2-chloro-5-fluorophenoxy)-1H-indazol-5-yl)-3-fluoro-5-(trifluoromethyl)benzamide] | 1 to 5 | < 1
6 | Cn1nc(N)c2c(Oc3cc(F)ccc3Cl)c(NC(=O)c3cccc(C(F)(F)F)c3)cc(Cl)c21 [Example 61, N-(3-Amino-7-chloro-4-(2-chloro-5-fluorophenoxy)-1-methyl-1H-indazol-5-yl)-3-(trifluoromethyl)benzamide] | 5 to 10 | < 1
7 | Cn1nc(N)c2c(Oc3cc(F)ccc3Cl)c(NC(=O)c3cncc(C(F)(F)F)c3)cc(Cl)c21 [Example 62, N-(3-Amino-7-chloro-4-(2-chloro-5-fluorophenoxy)-1-methyl-1H-indazol-5-yl)-5-(trifluoromethyl)nicotinamide] | 1 to 5 | < 1
8 | Cn1nc(N)c2c(Oc3cc(F)ccc3Cl)c(NC(=O)c3csc4ccccc34)cc(Cl)c21 [Example 63, N-(3-Amino-7-chloro-4-(2-chloro-5-fluorophenoxy)-1-methyl-1H-indazol-5-yl)benzo[b]thiophene-3-carboxamide] | 1 to 5 | < 1
9 | Cn1nc(N)c2c(Oc3cc(F)ccc3Cl)c(NC(=O)N3CCc4ccccc43)cc(Cl)c21 [Example 64, N-(3-Amino-7-chloro-4-(2-chloro-5-fluorophenoxy)-1-methyl-1H-indazol-5-yl)indoline-1-carboxamide] | 1 to 5 | < 1
10 | Nc1nn(CCO)c2c(C#Cc3ccccn3)cc(NC(=O)c3cc(F)cc(C(F)(F)F)c3)c(Oc3cc(F)ccc3Cl)c12 [Example 67, N-(3-Amino-4-(2-chloro-5-fluorophenoxy)-1-(2-hydroxyethyl)-7-(pyridin-2-ylethynyl)-1H-indazol-5-yl)-3-fluoro-5-(trifluoromethyl)benzamide] | 1 to 5 | < 1
11 | Nc1nn2c3c(cc(NC(=O)c4cc(F)cc(C(F)(F)F)c4)c(Oc4cc(F)ccc4Cl)c13)-c1ccccc1C2 [Example 70, N-(4-Amino-3-(2-chloro-5-fluorophenoxy)-7H-pyrazolo[4,5,1-de]phenanthridin-2-yl)-3-fluoro-5-(trifluoromethyl)benzamide] | ≥ 10 | < 1

Other lines, results leading:

Row | IC50 [1] [µM] | IC50 [2] [µM] | SMILES
12 | 1 to 5 | < 1 | CC(=O)N1CCC(C#Cc2cc(NC(=O)c3cc(F)cc(C(F)(F)F)c3)c(Oc3cc(F)ccc3Cl)c3c(N)nn(C)c23)CC1 [Example 52, N-(7-((1-Acetylpiperidin-4-yl)ethynyl)-3-amino-4-(2-chloro-5-fluorophenoxy)-1-methyl-1H-indazol-5-yl)-3-fluoro-5-(trifluoromethyl)benzamide]
13 | 1 to 5 | < 1 | Cn1nc(N)c2c(Oc3cc(F)ccc3Cl)c(NC(=O)c3cc(F)cc(C(F)(F)F)c3)cc(N3CCn4ncnc4C3)c21 [Example 55, N-(3-Amino-4-(2-chloro-5-fluorophenoxy)-7-(5,6-dihydro-[1,2,4]triazolo[1,5-a]pyrazin-7(8H)-yl)-1-methyl-1H-indazol-5-yl)-3-fluoro-5-(trifluoromethyl)benzamide]
14 | < 1 | < 1 | Cn1nc(N)c2c(Oc3cc(F)ccc3Cl)c(NC(=O)c3cc(F)cc(C(F)(F)F)c3)cc(/C=C/C#N)c21 [Example 57, (E)-N-(3-amino-4-(2-chloro-5-fluorophenoxy)-7-(2-cyanovinyl)-1-methyl-1H-indazol-5-yl)-3-fluoro-5-(trifluoromethyl)benzamide]
15 | < 1 | < 1 | Cn1nc(N)c2c(Oc3cc(F)ccc3Cl)c(NC(=O)c3cc(F)cc(C(F)(F)F)c3)cc(/C=C\C#N)c21 [Example 58, (Z)—N-(3-amino-4-(2-chloro-5-fluorophenoxy)-7-(2-cyanovinyl)-1-methyl-1H-indazol-5-yl)-3-fluoro-5-(trifluoromethyl)benzamide]
16 | < 1 | < 1 | Cn1nc(N)c2c(Oc3cc(F)ccc3Cl)c(NC(=O)c3cc(F)cc(C(F)(F)F)c3)cc(CCC#N)c21 [Example 59, N-(3-Amino-4-(2-chloro-5-fluorophenoxy)-7-(2-cyanoethyl)-1-methyl-1H-indazol-5-yl)-3-fluoro-5-(trifluoromethyl)benzamide]
17 | < 1 | < 1 | Cn1nc(N)c2c(Oc3cc(F)ccc3Cl)c(NC(=O)c3cc(F)cc(Cl)c3)cc(Cl)c21 [Example 60, N-(3-Amino-7-chloro-4-(2-chloro-5-fluorophenoxy)-1-methyl-1H-indazol-5-yl)-3-chloro-5-fluorobenzamide]
18 | < 1 | < 1 | CCNC(=O)c1cc(NC(=O)c2cc(F)cc(C(F)(F)F)c2)c(Oc2cc(F)ccc2Cl)c2c(N)nn(C)c12 [Example 65, 3-Amino-4-(2-chloro-5-fluorophenoxy)-N-ethyl-5-(3-fluoro-5-(trifluoromethyl)benzamido)-1-methyl-1H-indazole-7-carboxamide]
19 | < 1 | < 1 | Cn1nc(N)c2c(Oc3cc(F)ccc3Cl)c(NC(=O)c3cc(F)cc(C(F)(F)F)c3)cc(CCO)c21 [Example 66, N-(3-Amino-4-(2-chloro-5-fluorophenoxy)-7-(2-hydroxyethyl)-1-methyl-1H-indazol-5-yl)-3-fluoro-5-(trifluoromethyl)benzamide]
20 | < 1 | < 1 | Nc1nn2c3c(cc(NC(=O)c4cc(F)cc(C(F)(F)F)c4)c(Oc4cc(F)ccc4Cl)c13)CNC2=O [Example 68, N-(2-Amino-3-(2-chloro-5-fluorophenoxy)-8-oxo-7,8-dihydro-6H-pyrazolo[4,5,1-ij]quinazolin-4-yl)-3-fluoro-5-(trifluoromethyl)benzamide]
21 | < 1 | < 1 | CN1Cc2cc(NC(=O)c3cc(F)cc(C(F)(F)F)c3)c(Oc3cc(F)ccc3Cl)c3c(N)nn(c23)C1=O [Example 69, N-(2-Amino-3-(2-chloro-5-fluorophenoxy)-7-methyl-8-oxo-7,8-dihydro-6H-pyrazolo[4,5,1-ij]quinazolin-4-yl)-3-fluoro-5-(trifluoromethyl)benzamide]
22 | < 1 | < 1 | Nc1nn2c3c(cc(NC(=O)c4cc(F)cc(C(F)(F)F)c4)c(Oc4cc(F)ccc4Cl)c13)CN(C1CC1)C2=O [Example 71, N-(2-Amino-3-(2-chloro-5-fluorophenoxy)-7-cyclopropyl-8-oxo-7,8-dihydro-6H-pyrazolo[4,5,1-ij]quinazolin-4-yl)-3-fluoro-5-(trifluoromethyl)benzamide]
23 | < 1 | < 1 | Nc1nn2c3c(cc(NC(=O)c4cc(F)cc(C(F)(F)F)c4)c(Oc4cc(F)ccc4Cl)c13)CN(C1CCC1)C2=O [Example 72, N-(2-Amino-3-(2-chloro-5-fluorophenoxy)-7-cyclobutyl-8-oxo-7,8-dihydro-6H-pyrazolo[4,5,1-ij]quinazolin-4-yl)-3-fluoro-5-(trifluoromethyl)benzamide]
24 | < 1 | < 1 | Nc1nn2c(=O)c3ccccc3c3cc(NC(=O)c4cc(F)cc(C(F)(F)F)c4)c(Oc4cc(F)ccc4Cl)c1c32 [Example 73, N-(4-Amino-3-(2-chloro-5-fluorophenoxy)-7-oxo-7H-pyrazolo[4,5,1-de]phenanthridin-2-yl)-3-fluoro-5-(trifluoromethyl)benzamide]
